# Read-outs that look alike come from different tables or passages of the source.
# Columns and labels:
# [1] = Amorphous solubility of PA-824; format: physicochemical
# [2] = format: physicochemical
# Procedure: 10 mL of SGF was added into 8 vials containing each ASD prepared by vacuum drying as described above, then the suspensions were shaken using a thermomixer at 37° C. under 100 rpm, 300 μL of suspensions were withdrawn at 1 h and the pH values were recorded. After that, 10 mL of FaSSIF was added into the suspensions containing SGF, 300 μL of suspensions were withdrawn at 1 h and 3 h, the pH values in 3 h were also recorded. The samples of suspensions were centrifuged in 96-well plates at 3000 rpm for 2 min. The supernatants were diluted with the diluent (ACN/water, 50/50) and analyzed by HPLC. […]
# [3] = Kinetic solubility of nano suspension after lyophilization in FaSSIF at 37° C.; format: physicochemical; details: thermodynamic from solid, Table 20, FaSSIF
# Procedure: (§1) 10 mL of FaSSIF was added into 2 vials containing 2 batches of nano suspension after Lyophilization (equivalent to 2 mg API), then the suspensions were shaken using a thermomixer at 37° C. and 100 rpm, 300 μL of suspensions were withdrawn at 15, 30, 45, 60, 90, 120 and 180 mins. The samples of suspensions were centrifuged at 14000 rpm for 10 min. The supernatants were diluted with the diluent (ACN/water, 50/50) and analyzed by UPLC.
# [4] = Kinetic solubility of nanospray-dried ASDs in FaSSIF at 37° C.; format: physicochemical; details: thermodynamic from solid
# Procedure: (§2) 10 mL of FASSIF was added into 8 vials containing each ASD prepared before by nanospray drying, respectively, then the suspensions were shaken using a thermomixer at 37° C. under 100 rpm, 300 μL of suspensions were withdrawn at 15, 30, 45, 60, 90, 120 and 180 mins. The samples of suspensions were centrifuged in 96-well plates at 3000 rpm for 5 min. The supernatants were diluted with the diluent (ACN/water, 50/50) and analyzed by HPLC.
# [5] = test system: Gram-positive and Gram-negative bacteria; details: cited from earlier work
# [6] = Kinetic solubility of HME ASDs in FaSSIF at 37° C.; format: physicochemical; details: thermodynamic from solid; for solubility at 15 min: read-out: Solubility (μg/mL) 15 min; for solubility at 30 min: read-out: Solubility (μg/mL) 30 min; for solubility at 60 min: read-out: Solubility (μg/mL) 60 min; for solubility at 90 min: read-out: Solubility (μg/mL) 90 min; for solubility at 120 min: read-out: Solubility (μg/mL) 120 min; for solubility at 180 min: read-out: Solubility (μg/mL) 180 min
# Procedure: as §1, with “into 4” for “into 2”, “containing each ASD” for “containing 2 batches of nano suspension after Lyophilization”, “to 5mg API) prepared by Hot melt extrusion, respectively,” for “to 2 mg API),”, “C. under” for “C. and”
# The milled ASD products were sieved with 60 mesh sieve, and kinetic solubility test was performed with sieved ASD products as well (Table 14).
# cytochrome P450 = details: cited from earlier work
# [7] = Kinetic solubility of Soluplus ASDs with different drug loadings in FaSSIF at 37° C.; format: physicochemical; details: thermodynamic from solid, Table 8, FaSSIF
# Procedure: as §2, with “of FaSSIF” for “of FASSIF”, “into 3” for “into 8”, “ASD (equivalent to 5 mg API)” for “ASD”, “prepared” for “prepared before”, “centrifuged” for “centrifuged in 96-well plates”, “(ACN/water, 75/25)” for “(ACN/water, 50/50)”
# [8] = Supersaturated solubility measurement in FaSSIF with 2% DMSO; format: physicochemical; details: for solubility kinetic at 16 min: read-out: Measured conc.(μg/mL)
# Procedure: Then 20 μL of each DMSO stock solution was added to FaSSIF at 1:49 to make the final DMSO concentration at 2% v/v. The samples were stirred at room temperature for 16 min, centrifuged and supernatants analyzed by HPLC.
# [9] = Equilibrium solubility of PA-824 in FaSSIF containing 2% DMSO; format: physicochemical; details: thermodynamic from solid, 25° C.
# [10] = Induction time of crystallization of PA-824 in presence of HPMCAS; format: physicochemical
# [11] = 15 min, read-out: Solubility (μg/mL) 15 min
# [12] = 30 min, read-out: Solubility (μg/mL) 30 min
# [13] = 45 min, read-out: Solubility (μg/mL) 45 min
# [14] = 60 min, read-out: Solubility (μg/mL) 60 min
# [15] = 90 min, read-out: Solubility (μg/mL) 90 min
# [16] = 180 min, read-out: Solubility (μg/mL) 180 min
smiles,measurement,setting,value
"O=[N+]([O-])c1cn2c(n1)OC[C@@H](OCc1ccc(OC(F)(F)F)cc1)C2 [PA-824, (6S)-2-nitro-6-{[4-(trifluoromethoxy)benzyl]oxy}-6,7-dihydro-5H-imidazo[2,1-b][1,3]oxazine]",solubility,"[1]; aqueous buffer, in PBS",~0.16 mg/mL
same,solubility,[1]; in FaSSIF V1,~0.3 mg/mL
same,FaSSIF Conc. (μg/mL) (1 hr),[2]; 1 h,23.95 µg/mL
same,SGF Conc. (μg/mL) (1 hr),[2]; 1 h,12.46 µg/mL
same,FaSSIF Conc. (μg/mL) (3 hr),[2]; 3 h,24.89 µg/mL
same,solubility at 15 min,[3]; [11],31.7 µg/mL
same,solubility at 30 min,[3]; [12],31.2 µg/mL
same,solubility at 45 min,[3]; [13],32.8 µg/mL
same,solubility at 60 min,[3]; [14],33.5 µg/mL
same,solubility at 90 min,[3]; [15],32.6 µg/mL
same,solubility at 120 min,"[3]; 120 min, read-out: Solubility (μg/mL) 120 min",39.6 µg/mL
same,solubility at 180 min,[3]; [16],31.6 µg/mL
same,solubility at 15 min,[4]; [11],22.1 µg/mL
same,solubility at 30 min,[4]; [12],23.7 µg/mL
same,solubility at 45 min,[4]; [13],26.1 µg/mL
same,solubility at 60 min,[4]; [14],26.3 µg/mL
same,solubility at 90 min,[4]; [15],23.6 µg/mL
same,solubility at 180 min,[4]; [16],24.4 µg/mL
same,activity against a broad range of Gram-positive and Gram-negative bacteria,[5],no significant activity
same,solubility at 15 min,[6]; after sieving (60 mesh),31.7 µg/mL
same,solubility at 30 min,[6]; after sieving (60 mesh),31.2 µg/mL
same,solubility at 45 min,"[6]; after sieving (60 mesh), 45 min, read-out: Solubility (μg/mL) 45 min",32.8 µg/mL
same,solubility at 60 min,[6]; after sieving (60 mesh),33.5 µg/mL
same,solubility at 90 min,[6]; after sieving (60 mesh),32.6 µg/mL
same,solubility at 120 min,[6]; after sieving (60 mesh),39.6 µg/mL
same,solubility at 180 min,[6]; after sieving (60 mesh),31.6 µg/mL
same,solubility at 15 min,[6]; without sieving,37.2 µg/mL
same,solubility at 30 min,[6]; without sieving,41.3 µg/mL
same,solubility at 60 min,[6]; without sieving,46.2 µg/mL
same,solubility at 90 min,[6]; without sieving,41.3 µg/mL
same,solubility at 120 min,[6]; without sieving,41.4 µg/mL
same,solubility at 180 min,[6]; without sieving,40.7 µg/mL
same,cytochrome P450 interactions,cytochrome P450,no significant cytochrome P450 interactions
same,solubility at 15 min,[7]; [11],22.1 µg/mL
same,solubility at 30 min,[7]; [12],23.7 µg/mL
same,solubility at 45 min,[7]; [13],26.1 µg/mL
same,solubility at 60 min,[7]; [14],26.3 µg/mL
same,solubility at 90 min,[7]; [15],23.6 µg/mL
same,solubility at 180 min,[7]; [16],24.4 µg/mL
same,solubility at 16 min,"[8]; fassif, kinetic from dmso stock",0.0533 mg/mL
same,solubility kinetic at 16 min,"[8]; fassif, kinetic from dmso stock, target conc. 205.60 μg/mL",30.8 µg/mL
same,solubility kinetic at 16 min,"[8]; fassif, kinetic from dmso stock, target conc. 514.00 μg/mL",29.5 µg/mL
same,solubility kinetic at 16 min,"[8]; fassif, kinetic from dmso stock, target conc. 616.80 μg/mL",28.7 µg/mL
same,solubility kinetic at 16 min,"[8]; fassif, kinetic from dmso stock, target conc. 771.00 μg/mL",30.3 µg/mL
same,Measured conc.(μg/mL),[8]; target conc. 51.40 μg/mL,53.08 µg/mL
same,Measured conc.(μg/mL),[8]; target conc. 102.80 μg/mL,53.27 µg/mL
same,Measured conc.(μg/mL),[8]; target conc. 411.20 μg/mL,32.98 µg/mL
same,Measured conc.(μg/mL),[8]; target conc. 1028.00 μg/mL,30.32 µg/mL
same,solubility thermodynamic at 18 h,[9],0.0514 mg/mL
same,Induction Time,"[10]; 160 ug/mL PA-824, FaSSIF V1",0.89 ± 0.26 min
same,Induction Time,"[10]; 160 ug/mL PA-824, FaSSIF V1 + HF (1 mg/mL)",77.6 ± 13.6 min
same,Induction Time,"[10]; 160 ug/mL PA-824, PBS pH 6.5",1.39 ± 0.18 min
same,Induction Time,"[10]; 160 ug/mL PA-824, PBS pH 6.5 + HF (1 mg/mL)",43.75 ± 1.34 min
same,Induction Time,"[10]; PA-824 80 μg/mL, PBS pH 6.5, HPMCAS-HF 10 μg/mL",about 77.5 minutes

# — patent US20240199639A1, “PRETOMANID AMORPHOUS FORM” (THE GLOBAL ALLIANCE FOR TB DRUG DEVELOPMENT, INC., priority 2021, published 2024)
